Earlier results as cited in article PMC8201747, “Cell Permeability of Isomeric Macrocycles: Predictions and NMR Studies” (ACS Medicinal Chemistry Letters, 2021).

Test system: Caco-2 cell monolayer
Settings: Table S17, reported previously, ref 13 (SI); for ER (efflux ratio): Caco-2

ER (efflux ratio)	Permeability (passive permeability across a Caco-2 cell monolayer, Papp AB+inhibitor cocktail)	Structure (SMILES)
1.40	18.9 nm/s	CO[C@H]1CN(C)C(=O)c2cc(C#N)ccc2OC[C@@H]2O[C@H](CC[C@H]2OC)CCN(C)C(=O)[C@@H]1C [Macrocycle 5]
0.81	230.8 nm/s	CO[C@@H]1CC[C@@H]2CCN(C)C(=O)[C@H](C)[C@H](OC)CN(C)C(=O)c3cccc(C#N)c3OC[C@@H]1O2 [Macrocycle 6]
0.78	63.6 nm/s	CO[C@H]1CN(C)C(=O)c2cccc(C#N)c2OC[C@@H]2O[C@H](CC[C@H]2OC)CCN(C)C(=O)[C@@H]1C [Macrocycle 7]
